According to paper PMC12265377, “CC48 a new CB2R agonist/FAAH inhibitor dual drug blocks gastric cancer progression and overcomes paclitaxel resistance” (Journal of Experimental & Clinical Cancer Research : CR, 2025):

Tests used:
FAAH Human recombinant = target: T1, FAAH Human recombinant (Homo sapiens, UniProt O00519); experiment: FAAH inhibition assay; assay type: biochemical; details: ± SEM, substrate AMC-AA 1 µM
T1 construct: purchased Cayman Chemical
T1 sequence (O00519 1-579): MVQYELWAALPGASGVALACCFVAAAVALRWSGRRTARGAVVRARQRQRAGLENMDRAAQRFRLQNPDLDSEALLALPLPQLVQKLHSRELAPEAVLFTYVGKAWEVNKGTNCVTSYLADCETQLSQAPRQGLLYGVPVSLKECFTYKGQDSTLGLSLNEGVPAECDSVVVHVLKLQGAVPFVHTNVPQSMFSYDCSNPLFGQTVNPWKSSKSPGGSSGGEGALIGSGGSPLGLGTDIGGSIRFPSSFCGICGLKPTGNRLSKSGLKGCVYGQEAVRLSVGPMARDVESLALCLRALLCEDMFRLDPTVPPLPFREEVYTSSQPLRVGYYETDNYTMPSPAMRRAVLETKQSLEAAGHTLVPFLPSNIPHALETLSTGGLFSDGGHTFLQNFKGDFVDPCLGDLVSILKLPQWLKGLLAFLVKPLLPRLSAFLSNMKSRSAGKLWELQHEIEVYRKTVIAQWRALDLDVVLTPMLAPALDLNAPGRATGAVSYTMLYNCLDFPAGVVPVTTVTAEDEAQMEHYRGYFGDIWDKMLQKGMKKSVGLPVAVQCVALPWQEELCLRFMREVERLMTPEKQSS
Description: Assays were performed using 96-well black flat-bottom microtiter NBS plates (COSTAR flat black). […] The substrate (7-amino-4-methyl-2 H-1-benzopyran-2-one-5Z,8Z,11Z,14Z-eicosatetraen-amide, AMC-AA, 1µM final concentration) was then added, and the assay was incubated for 2 h at 37 °C in a TECAN infinite M1000Pro plate reader (Tecan, Männedorf, Switzerland) which measured the fluorescence from each well every 30 s (λex = 340 nm, λem = 450 nm), determining FAAH activity as relative fluorescence units (RFU). Control wells lacking the inhibitor and blank wells lacking both inhibitor and enzyme were used to calculate the percent inhibition for each tested compound. IC50 values were calculated via GraphPad Prism 5.0 (GraphPad Software, La Jolla, CA, USA) and are reported as mean ± SEM of at least three independent measurements performed in triplicate.

[1] = system: HGC27-S/R and AGS cell lines; experiment: Autophagy assay (western blot of autophagy proteins); assay type: cell-based, human; details: 48 h, 1 and 10 µM (AM630 1 and 6 µM)
Description: Cells were rinsed with ice-cold lysis buffer (50 mM Tris,10 mM EDTA, 1% v/v Triton-X100), supplemented with protease inhibitor cocktail set III (80 µM aprotinin, 5 mM bestatin, 1.5 mM leupeptin, 1 mM pepstatin; Sigma-Merck, St. Louis, MO), 2 mM phenylmethyl sulfonyl fluoride and 1 mM Na3VO4, then sonicated and centrifuged at 13,000 g for 10 min at 4 °C. 20 µg protein extracts were subjected to SDS-PAGE and probed with the following antibodies: anti-ATG5 (#ab108327, diluted 1:1000), anti-ATG7 (#ab52472, diluted 1:5000), anti-ATG12 (#ab303488, diluted 1:1000), anti-Beclin (#ab210498, diluted 1:1000), anti-p62 (#ab109012, diluted 1:10000), anti-LC3 (#ab192890, diluted 1:2000)(all from Abcam, Cambridge, UK) or anti-β-tubulin antibody (#sc-5274, diluted 1:1000; Santa Cruz Biotechnology Inc.,Santa Cruz, CA, USA), followed by incubation with a peroxidase conjugated secondary antibody (Bio-Rad Laboratories, Hercules, CA). After washing in Tris-buffered saline (TBS)-Tween 0.1% v/v solution, proteins were detected by enhanced chemiluminescence (Bio-Rad Laboratories).Total protein expression was quantified using the ImageJ software (http://rsb.info.nih.gov/ij/). The expression level of each of the investigated protein was normalized to the β-tubulin level.

[2] = system: HGC27-S/R and AGS cell lines; experiment: VEGFA in cell culture medium (ELISA), all lines; assay type: cell-based, human; details: all the cell lines investigated, 48 h
Description: (§1) The amount of VEGFA secreted in the culture medium by HGC27-S/R and AGS treated cells was measured using a highly sensitive Enzyme-Linked Immunosorbent Assay (ELISA), Quantikine Kit ELISA (R&D Systems, Minneapolis, MN, USA), according to the manufacturer’s instructions. The measured values were normalized to the number of cells.

[3] = system: circulating cytokines (eotaxin, G-CSF, p40IL-12); experiment: Serum cytokine quantification (Bio-Plex); assay type: in vivo, CD1-nude female mice
Description: Serum levels of 23 cytokines [G-CSF, GM-CSF, GRO/KC (CXCL1), IFN-γ, IL-1α, IL-1β, IL-2, IL-3, IL-4, IL-5, IL-6, IL-9, IL-10, IL-12 (p70), IL-13, IL-17 A, IL-18, MCP-1 (CCL2), MIP-1α, MIP-1β, RANTES, TNF-α, and eotaxin] were measured using Bio-Plex Pro Rat Cytokine 23-Plex™ (#M60009RDPD) magnetic bead-based assays (Bio-Rad Laboratories) on the Bio-Plex® platform (Bio-Rad), according to the manufacturer’s instructions. […] Cytokine expression (pg/mL) for each sample was multiplied by the dilution factor prior to the percent baseline calculation.

NCI-N87_LUC cell line = experiment: Ki67 immunohistochemistry of tumor explants; assay type: in vivo, CD1-nude female mice; details: GP2/GP3 (10 and 20 mg/kg); vehicle 35%
Description: Tissue blocks fixed in formalin and embedded in paraffin were obtained from the explants of the tumor masses of each specimen. Sections stained with hematoxylin and eosin (H&E) were reviewed by a pathologist to confirm the adequacy of the sample, and to evaluate the morphologic and/or pathological characteristics of each sample. […] IHC analysis was carried out in sections after deparaffinization for 30 min and then rehydration in grades of alcohol. Antigen retrieval was performed at 90 °C for 20 min with Tris-borate-EDTA Buffer. To assess the Ki67, IHC was again carried out on all cases on paraffin-embedded sections using an anti-Ki67 Ab diluted 1:100 (Mib-1; DAKO) following the manufacturer’s instructions.

CB2R = CB2R affinity (literature values); assay type: binding; details: CB2R vs CB1R
[4] = Body weight, serum biochemistry and urinalysis in treated mice; details: GP2 and GP3 (10 and 20 mg/kg)
Description: All the animals were fed ad libitum with complete mouse feed, and water was provided ad libitum. The body weight for each animal was recorded weekly, starting from day 0 until the end of the study.
Physical observations of health status, including visual checks on the mice general appearance (e.g. fur and activity levels/responsiveness), were made daily. On day 45, the animals were individually housed in metabolic cages for 24 h, with free access to water and food, in order to perform urine collection and urinalysis. Immediately before metabolic cage housing, animals were subjected to a water load (10 mL/kg by oral gavage) in order to allow urine volume normalization. In addition, blood samples were taken from the submandibular vein after isoflurane anesthesia and before sacrifice at the end of the study period. The blood was collected in Eppendorf tubes and then centrifuged at about 8,000 rpm for 15 min at 4 °C for serum collection.

HGC27-S cells = experiment: VEGFA in cell culture medium (ELISA); assay type: cell-based, human; details: 10 µM, 48 h, untreated 3.82
Description: as §1

| SMILES | FAAHi IC50 (FAAH Human recombinant) | IC50 (FAAH Human recombinant; read-out: FAAHi IC50) | expression of autophagy proteins (ATG5, ATG7, ATG12, Beclin-1, p62, LC3-II) [1] | VEGFA secretion in culture medium (in words) [2] | serum G-CSF level vs GP1 ([3]; GP2, 10 mg/kg, p < 0.01) | serum eotaxin level vs GP1 ([3]; GP3, 20 mg/kg) | serum G-CSF level vs GP1 ([3]; GP3, 20 mg/kg, p < 0.05) | serum p40IL-12 level vs GP1 ([3]; GP3, 20 mg/kg, p < 0.05) | percentage of Ki67-stained nuclei in tumor (NCI-N87_LUC cell line) | fold higher affinity for CB2R compared to CB1R (CB2R) | body weight vs vehicle [4] | serum AST, ALT, Cre, UREA and GFR vs vehicle [4] | VEGFA secretion in culture medium (HGC27-S cells) |
| --- | --- | --- | --- | --- | --- | --- | --- | --- | --- | --- | --- | --- | --- |
| COc1ccc(C(=O)c2c(C)n(CCN3CCOCC3)c3cc(I)ccc23)cc1 [AM630, reference compound] | low FAAH inhibition activity | 20 ± 2.8 µM | dose-dependent increase of autophagic proteins | increase in VEGFA secretion | – | – | – | – | – | – | – | – | – |
| CCCCCNc1ccccc1C(=O)NC12CC3CC(CC(C3)C1)C2 [ASF151] | – | – | less potent inducer of some autophagy-related proteins | – | – | – | – | – | – | – | – | – | – |
| O=C(NC12CC3CC(CC(C3)C1)C2)c1ccccc1OCc1ccccc1 [CC48] | – | – | – | – | significant decrease | tended to decrease | maintained at the highest dose | significant decrease | 15–20% | 16 fold | No statistically significant differences were observed | No statistically significant differences in biochemical results | 2.6 pg/mL/cell |
